Measurements as given in patent US12680074B2, “Antigen presenting T cells, sensitized, manufactured T cells and methods of treatment using the same” (RAPA THERAPEUTICS, LLC, priority 2020, dated 2026).

How the values were obtained:
[1] = system: p62; test: Western blot of p62 after 16-hr pre-incubation (FIG. 11); format: cell-based, human
Protocol: (§1) For FIGS. 11-13, human CD4^+ and CD8^+ T cells were cultured using a 16-hr pre-incubation interval prior to the addition of 3/28 beads at the reduced ratio of 1:3 beads-to-T cells. As indicated in FIGS. 11-13, the various T cell cultures received different methods of mTOR inhibition (rapamycin at 1.0 μM; temsirolimus at 1.0 or 0.1 μM), different conditions of exogenous IL-2 addition, and different conditions relative to addition of the anti-IL-2 receptor monoclonal antibody, daclizumab. After the 16-hr pre-incubation interval, cells were harvested from the T cell cultures, protein was isolated, and p62 (FIG. 11), phospho-RAPTOR (FIG. 12), or BIM (FIG. 13) and the housekeeper gene β-actin were quantified by western blot.

[2] = system: TBET; test: Intra-cellular TBET expression at day 6 of ex vivo T cell culture (FIG. 1B); format: cell-based
Protocol: (§2) T cells were cultured ex vivo, as indicated, using various ratios of anti-CD3, anti-CD28 beads to T cells (1:1 or 1:12); the mTOR inhibitor temsirolimus (1 μM); without or with the anti-IL-2 receptor monoclonal antibody daclizumab (5 or 50 μg/ml); and either Th1 polarization cytokines (IFN-alpha; 10,000 IU/ml) or control regulatory T cell polarization (IL-2 plus TGF-β). At day 6 of culture, the T cells were evaluated for intra-cellular expression of the regulatory T cell transcription factor FoxP3 and the Th1 transcription factor TBET. (FIGS. 1A-1B).

[3] = system: FoxP3; test: Intra-cellular FoxP3 expression at day 6 of ex vivo T cell culture (FIG. 1A); format: cell-based
Protocol: as §2

[4] = system: phospho-RAPTOR; test: Western blot of phospho-RAPTOR after 16-hr pre-incubation (FIG. 12); format: cell-based, human; settings: high-dose temsirolimus compared to low-dose temsirolimus or high-dose rapamycin
Protocol: as §1

[5] = system: IFN-γ and TNF-α secretion by CD4+ and CD8+ T cells; test: Day 6 / day 13 cytokine secretion after 3:1 3/28 bead co-stimulation, Luminex (FIGS. 3A-3B); format: cell-based
Protocol: To evaluate this, we tested cytokine secretion potential of the manufactured T cells at the end of cell culture (day 6) and then again one week after ex vivo expansion after maximal co-stimulation (3/28 bead-to-T cell ratio, 3:1) and propagation in media devoid of any inhibitors. In FIGS. 3A-3B, CD4^+ and CD8^+ T cells were purified and cultured for 6-days either with or without a 16-hr interval of pre-incubation prior to co-stimulation (1:1 ratio of 3/28 beads-to-T cells). As indicated, temsirolimus was added at concentrations of either 1.0 or 0.1 μM; all cultures were supplemented with IFN-α (10,000 IU/ml) and daclizumab (50 μg/ml). On day 6 of culture, the resultant T cells were co-stimulated for 24 hr using a 3:1 ratio of 3/28 beads; the supernatant was tested for cytokine content by Luminex assay (results are described as pg per ml of cytokine secreted per million cells per 24 hr). […] N.A, abbreviation indicates not applicable (insufficient T cell yield to perform assay).

[6] = system: pancreatic cancer cell line MIA PaCa-2 and lung cancer cell line H23; test: Example 9 sensitization of manufactured T cells by lysate of etoposide-treated tumor cells, cytokine re-stimulation read-out (FIG. 37); format: cell-based, human
Protocol: Manufactured T cells for this and all of the following examples were produced by the following procedure: peripheral blood apheresis PBMC product was subjected to Ficoll gradient centrifugation and the resultant cells were plated at 15×10^6 cells/mL; at culture initiation, temsirolimus was added at a final concentration of 2 μM and basiliximab was added at a final concentration of 30 μg/mL; after 24 hours of culture, IFN-α was added to achieve a final concentration of 20,000 IU/mL; no other cytokines were added; no co-stimulation was provided; the manufactured T cells were harvested on day 6 of culture for further use.
The pancreatic cancer cell line MIA PaCa-2 and the lung cancer cell line H23 were treated for 72-hours with etoposide, an inducer of immunogenic cell death, at concentrations of 0.5, 5.0 and 50 μM. Briefly, a cell concentration of 5×10^6 tumor cells/mL was utilized to generate 100 μL of lysate, which was then used to directly stimulate manufactured T cells. That is, there was no separate T cell APC manufacturing step used for this experiment (lysate added directly to effector T cells). The tumor cell lysate was then added to manufactured T cells which were expanded in X-Vivo 20 media containing IL-2 (100 IU/mL), IL-7 (10 ng/mL), and IL-15 (10 ng/mL).

[7] = temsirolimus plus daclizumab under TREG-permissive conditions: bead ratio 1:12, no IFN-α, exogenous IL-2 plus TGF-β

Molecule | autophagy marker p62 ([1]; pre-incubation, 1:3 beads, daclizumab, rapamycin 1 μM or temsirolimus 1.0 or 0.1 μM) | expression of TBET ([2]; combination of temsirolimus and an anti-IL-2 receptor monoclonal antibody) | FoxP3 expression ([3]; exogenous IL-2 added in combination with IFN-α) | T cell expression of FoxP3 ([3]; temsirolimus 1.0 μM with IFN-α, relative to day 0 input T cell population) | FoxP3 expression [3, 7] | phosphorylated form of RAPTOR [4] | day 13 T cell IFN-γ and TNF-α secretion ([5]; pre-incubation plus high-dose temsirolimus, after one week without inhibitors) | day 6 T cell cytokine secretion potential ([5]; temsirolimus 0.1 μM) | day 6 T cell IFN-γ and TNF-α secretion after 24 hr of maximal co-stimulation ([5]; temsirolimus 1.0 μM, with or without overnight pre-incubation) | sensitizing manufactured T cells to cytokine secretion in response to repeat exposure to lysate ([6]; 72-hour incubation of MIA PaCa-2 or H23 with etoposide 0.5 to 5.0 μM) | T cell sensitization ([6]; etoposide at the higher concentration of 50 μM) | autophagy marker p62 ([1]; IL-2 receptor blockade eliminated from the regimen) | TBET expression, dose response ([2]; 50 μg/ml versus 5 μg/ml) | FoxP3 expression, dose-response ([3]; antibody at 50 μg/ml versus 5 μg/ml) | FoxP3 expression ([3]; blockade of the IL-2 receptor added to temsirolimus and IFN-α)
CO[C@H]1C[C@@H]2CC[C@@H](C)[C@@](O)(O2)C(=O)C(=O)N2CCCC[C@H]2C(=O)O[C@H]([C@H](C)C[C@@H]2CC[C@@H](OC(=O)C(C)(CO)CO)[C@H](OC)C2)CC(=O)[C@H](C)/C=C(\C)[C@@H](O)[C@@H](OC)C(=O)[C@H](C)C[C@H](C)/C=C/C=C/C=C/1C [temsirolimus] | autophagy could be realized | increased expression of TBET | not effective | reduced | not effective | lower levels of phospho-RAPTOR | highest | only partially reduced | very low levels | – | – | – | – | – | –
COc1cc([C@@H]2c3cc4c(cc3[C@@H](O[C@@H]3O[C@@H]5CO[C@@H](C)O[C@H]5[C@H](O)[C@H]3O)[C@H]3COC(=O)[C@H]23)OCO4)cc(OC)c1O [etoposide] | – | – | – | – | – | – | – | – | – | effective | not effective | – | – | – | –
daclizumab: anti-IL-2 receptor monoclonal antibody (antibody, chains of the INN, looked up, V domains shown) VH: QVQLVQSGAEVKKPGSSVKVSCKASGYTFTSYRMHWVRQAPGQGLEWIGYINPSTGYTEYNQKFKDKATITADESTNTAYMELSSLRSEDTAVYYCARGGGVFDYWGQGTLVTVSS VL: DIQMTQSPSTLSASVGDRVTITCSASSSISYMHWYQQKPGKAPKLLIYTTSNLASGVPARFSGSGSGTEFTLTISSLQPDDFATYYCHQRSTYPLTFGQGTKVEVK | – | – | – | – | not effective | – | – | – | – | – | – | substantially blunted the induction of autophagy | higher degree | more effective | further reduced
